Assay results taken from patent US7700786B2, “Pyrazole derivative, intermediate therefor, processes for producing these, and herbicide containing these as active ingredient” (Sagami Chemical Research Center, priority 2001, dated 2010).

Columns and labels:
Abutilon theophrasti = assay: Herbicidal efficacy test by foliar treatment after germination under upland field condition; assay type: in vivo; details: Dc: Digitaria ciliaris (table footnote; method names Abutilon theophrasti), dose 1 kg/ha, rated 1 to 5 on the 14th day after treatment
Amaranthus viridis [1] = assay: as above; assay type: in vivo; details: dose 1 kg/ha, rated 1 to 5 on the 14th day after treatment
Text: (§1) A vat having an area of 5×10 cm^2 and a depth of 5 cm was filled with upland field soil, and seeds of Chenopodium album, Echinochloa crus-galli, Amaranthus viridis and Abutilon theophrasti were sown thereon and covered with soil by a depth of 0.5 cm. Water was sprayed as required to grow them for 14 days.

Echinochloa crus-galli [2] = assay: as above; assay type: in vivo; details: dose 1 kg/ha, rated 1 to 5 on the 14th day after treatment
Text: as §1

Chenopodium album [3] = assay: as above; assay type: in vivo; details: dose 1 kg/ha, rated 1 to 5 on the 14th day after treatment
Text: as §1

[4] = system: Rice (oryza sativa) seedlings (cultiver Koshihikari); details: in vivo
Text: (§3) A 1/10,000-are pot was filled with paddy field soil, and, after plowing, seeds of Echinochloa oryzicola, Cyperus difformis, Monochoria vaginalis, Scirpus juncoides, Eleocharis acicularis and other annual broadleaf weeds such as Lindernia procumbens, Rotala indica and Elatine triandra were sown. Rice (oryza sativa) seedlings (cultiver “Koshihikari”) at a 2.5-leaf stage were transplanted and kept under a submergence condition. After one day, the wettable powder or emulsifiable concentrate of the compound of the present invention, prepared according to Preparation Example, was diluted and dropped on a water surface at a predetermined dose.

sweet corn (Zea mays) = assay: Injury to corn, soil treatment before germination under upland field condition; assay type: in vivo; details: dose 1 kg/ha; 21st day after treatment; ratings of 1 to 5
Text: (§2) A vat having an area of 5×10 cm^2 and a depth of 5 cm was filled with upland field soil, and seeds of Chenopodium album, Echinochloa crus-galli, Amaranthus viridis, Digitaria ciliaris and sweet corn (Zea mays) were sown thereon and covered with soil by a depth of 0.5 cm.

Amaranthus viridis [5] = assay: Herbicidal efficacy test by soil treatment before germination under upland field condition; assay type: in vivo; details: dose 1 kg/ha; 21st day after treatment; ratings of 1 to 5; note: key: 1 shows no influence; 5 shows complete die
Text: as §2

Echinochloa crus-galli [6] = assay: as above; assay type: in vivo; details: dose 1 kg/ha; 21st day after treatment; ratings of 1 to 5
Text: as §2

Digitaria ciliaris = assay: as above; assay type: in vivo; details: dose 1 kg/ha; 21st day after treatment; ratings of 1 to 5
Text: as §2

Chenopodium album [7] = assay: as above; assay type: in vivo; details: dose 1 kg/ha; 21st day after treatment; ratings of 1 to 5
Text: as §2

Echinochloa oryzicola = assay: Herbicidal efficacy test by pre-emergence treatment under submergence condition; assay type: in vivo; details: 15th day after treatment, ratings of 1 to 5
Text: as §3

Monochoria vaginalis = assay: as above; assay type: in vivo; details: 15th day after treatment, ratings of 1 to 5; note: key: 1 shows no influence; 5 shows complete die
Text: as §3

Scirpus juncoides = assay: as above; assay type: in vivo; details: 15th day after treatment, ratings of 1 to 5
Text: as §3

Cyperus difformis = assay: as above; assay type: in vivo; details: 15th day after treatment, ratings of 1 to 5; note: key: 1 shows no influence; 5 shows complete die
Text: as §3

Eleocharis acicularis = assay: as above; assay type: in vivo; details: 15th day after treatment, ratings of 1 to 5; note: key: 1 shows no influence; 5 shows complete die
Text: as §3

[8] = system: annual broadleaf weeds such as Lindernia procumbens, Rotala indica and Elatine triandra; assay: as above; assay type: in vivo; details: 15th day after treatment, ratings of 1 to 5
Text: as §3
Throughout, for Herbicidal activity Av: key: 1 shows no influence; 5 shows complete die.
Throughout, for Herbicidal activity Ca: key: 1 shows no influence; 5 shows complete die.

| SMILES | Herbicidal activity Dc (Abutilon theophrasti) | Herbicidal activity Av (Amaranthus viridis [1]) | Herbicidal activity Ec (Echinochloa crus-galli [2]) | Herbicidal activity Ca (Chenopodium album [3]) | Injury Os [4] | Injury Zm (sweet corn (Zea mays)) | Herbicidal activity Av (Amaranthus viridis [5]) | Herbicidal activity Ec (Echinochloa crus-galli [6]) | Herbicidal activity Dc (Digitaria ciliaris) | Herbicidal activity Ca (Chenopodium album [7]) | Herbicidal efficacy Eo (Echinochloa oryzicola; dose 0.5 kg/ha) | Herbicidal efficacy Eo (Echinochloa oryzicola; dose 1 kg/ha) | Herbicidal efficacy Mv (Monochoria vaginalis; dose 0.5 kg/ha) | Herbicidal efficacy Mv (Monochoria vaginalis; dose 1 kg/ha) | Herbicidal efficacy Sj (Scirpus juncoides; dose 0.5 kg/ha) | Herbicidal efficacy Sj (Scirpus juncoides; dose 1 kg/ha) | Herbicidal efficacy Cd (Cyperus difformis; dose 0.5 kg/ha) | Herbicidal efficacy Cd (Cyperus difformis; dose 1 kg/ha) | Herbicidal efficacy Ea (Eleocharis acicularis; dose 0.5 kg/ha) | Herbicidal efficacy Ea (Eleocharis acicularis; dose 1 kg/ha) | other results |
| --- | --- | --- | --- | --- | --- | --- | --- | --- | --- | --- | --- | --- | --- | --- | --- | --- | --- | --- | --- | --- | --- |
| Cc1cc(Oc2c(Cl)cc(C(F)(F)F)cc2Cl)nn1C(=O)NCC1CCCO1 (stereo not drawn) [Compound 3-183] | 5 | 5 | 5 | 5 | 2 | 1 | 5 | 3 | 4 | 5 | 5 | 5 | 5 | 5 | 5 | 5 | 5 | 5 | 5 | 5 | Herbicidal efficacy Blw ([8]; dose 0.5 kg/ha): 5; Herbicidal efficacy Blw ([8]; dose 1 kg/ha): 5 |
| Cc1cc(Oc2c(Cl)cc(C(F)(F)F)cc2Cl)nn1C(N)=O [Compound 3-3] | 5 | 5 | 4.5 | 5 | 1.5 | 1.5 | 5 | 3.5 | 4.5 | 5 | 5 | 5 | 5 | 5 | 5 | 5 | 5 | 5 | 5 | 5 | Herbicidal efficacy Blw ([8]; dose 0.5 kg/ha): 5; Herbicidal efficacy Blw ([8]; dose 1 kg/ha): 5 |
| CCCNC(=O)n1nc(Oc2c(Cl)cc(C(F)(F)F)cc2Cl)cc1C [Compound 3-74] | 5 | 5 | 4.9 | 5 | 1.8 | 1 | 5 | 4.9 | 5 | 5 | 5 | 5 | 5 | 5 | 5 | 5 | 5 | 5 | 5 | 5 | Herbicidal efficacy Blw ([8]; dose 0.5 kg/ha): 5; Herbicidal efficacy Blw ([8]; dose 1 kg/ha): 5 |
